Results from patent publication US20230288403A1, “METHOD FOR INDUCING EXTRACELLULAR TRAP (ET) FORMATION” (Tridek-One Therapeutics, priority 2022, published 2023).
“Also recorded” adds a separate entry of the source.

What was measured:
Assay type in all cases: cell-based
[1] = tested on: human peripheral blood neutrophils; experiment: NET detection in fixed neutrophils by fluorescence microscopy (Sytox Green, nuclear morphology); details: 4 hours of culture, plate-bound human polyvalent Ig (coating solution 100 μg/mL) or PMA (25 nM) in culture medium
Description: Human polyvalent immunoglobulins (or human polyvalent Ig) also referred to as intravenous immunoglobulin or IVIg (Privigen, CSL Behring LLC) or human serum albumin or HSA (Sigma Aldrich—reference: H5667), used as negative control, diluted in coating solution (DPBS Gibco—reference: 14190) were allowed to adsorb for 2 hours at room temperature on high-binding, sterile 96-well plates suitable for fluorescence microscopy (Greiner Bio-One, Frickenhausen, Germany). Unless indicated otherwise, deposits of human polyvalent Ig were obtained with a coating solution (DPBS no calcium, no magnesium (ThermoFisher—reference: 14190) consisting of KCl 2.67 mM, KH2PO4 1.47 mM, NaCl 137.9 mM, Na2HPO4-7H2O 8.06 mM) comprising human polyvalent Ig at a concentration of 100 μg/mL. Similarly, unless indicated otherwise, deposits of HSA were obtained with a coating solution comprising HSA at a concentration of 100 μg/mL. Phorbol-12-myristate-13-acetate or PMA (Sigma Aldrich—reference: P8139) was used as positive control. PMA was added to the culture medium at a final concentration of nM. In some experiments (see FIG. 5A), human polyvalent Ig were added in the culture medium at a final concentration ranging from 3 to 300 μg/mL. […]
Images were acquired by fluorescence microscopy in the green channel. […]

[2] = tested on: human peripheral blood neutrophils; experiment: NET formation by live cell fluorescent microscopy (Sytox Green) with computer-assisted image analysis
Description: Human polyvalent immunoglobulins (or human polyvalent Ig) also referred to as intravenous immunoglobulin or IVIg (Privigen, CSL Behring LLC) or human serum albumin or HSA (Sigma Aldrich—reference: H5667), used as negative control, diluted in coating solution (DPBS Gibco—reference: 14190) were allowed to adsorb for 2 hours at room temperature on high-binding, sterile 96-well plates suitable for fluorescence microscopy (Greiner Bio-One, Frickenhausen, Germany). Unless indicated otherwise, deposits of human polyvalent Ig were obtained with a coating solution (DPBS no calcium, no magnesium (ThermoFisher—reference: 14190) consisting of KCl 2.67 mM, KH2PO4 1.47 mM, NaCl 137.9 mM, Na2HPO4-7H2O 8.06 mM) comprising human polyvalent Ig at a concentration of 100 μg/mL. Similarly, unless indicated otherwise, deposits of HSA were obtained with a coating solution comprising HSA at a concentration of 100 μg/mL. Phorbol-12-myristate-13-acetate or PMA (Sigma Aldrich—reference: P8139) was used as positive control. PMA was added to the culture medium at a final concentration of nM. In some experiments (see FIG. 5A), human polyvalent Ig were added in the culture medium at a final concentration ranging from 3 to 300 μg/mL.
(§1) Neutrophils were isolated from the peripheral blood of healthy human donors by negative magnetic bead selection using a commercially available kit (STEMCELL Technologies—reference: 19666). Isolated neutrophils were then distributed in 96-well plates (Greiner Bio-One, Frickenhausen, Germany), in particular in 96-well plates coated with human polyvalent Ig or HSA as described above, at a concentration of 7.5×10^4 cells per well, corresponding to 10^6 cells/mL of culture medium. Neutrophils were then cultured in HBSS with calcium and magnesium (Gibco—reference: 24020-091) under standard conditions (i.e., humidified incubator 37° C. and 5% CO2). […]
(§2) High-binding, sterile 96-well plates (Greiner Bio-One, Frickenhausen, Germany) were coated with human polyvalent Ig as described in Example 1, using a coating solution comprising human polyvalent Ig at a concentration ranging from 3 to 300 μg/mL, as indicated. If no indication is given, deposits of human polyvalent Ig were obtained with a coating solution comprising human polyvalent Ig at a concentration of 100 μg/mL.
(§3) Where indicated, the SYK inhibitor BAY-61-3606, obtained from Selleckchem (reference: S7006), was added to the culture medium at a final concentration ranging from 0.05 to 5 (0.05, 0.1, 0.5, 1, 5 as indicated). Where indicated, the calcineurin inhibitor FK506 (also known as tacrolimus), obtained from ASTELLAS PHARMA (PROGRAF™ 5 mg/ml), was added to the culture medium at a final concentration ranging from 0.3 to 100 nM (0.3, 1, 3, 10, 30, 100 nM, as indicated). Where indicated, the humanized monoclonal antibody motavizumab directed against the respiratory syncytial virus (RSV), produced as a human IgG4 (by Evitria, Zurich, Switzerland), was added to the culture medium at a final concentration ranging from 1 to 100 μg/mL (1, 3, 10, 30, 100 μg/mL, as indicated). Human IgG4 can engage FcRI (CD64) and enhance the activation of human neutrophils triggered by immobilized immunoglobulins, which is mediated by FcRIIa and FcRIIIb, by the engagement of an additional signaling pathway.
Human peripheral blood neutrophils were isolated and cultured as described in Example 1. In particular, freshly isolated peripheral blood neutrophils were distributed in coated plate as described in Example 1 (7.5×10^4 cells per well, corresponding to 10^6 cells/mL of culture medium) and cultured for the indicated time.
The fluorescent, cell-impermeant, nucleic acid dye Sytox Green was added to the culture medium at a concentration of 1 μM to detect NET formation. ROS (reactive oxygen species) formation was identified by the use of a fluorescent oxidative-sensitive probe (CM-H2DCFDA, ThermoFisher Scientific—reference: C6827). […]

[3] = tested on: human peripheral blood eosinophils; experiment: EET formation by eosinophils, live cell fluorescent microscopy (Sytox Green); details: 5 μM inhibitor; 100 μg/mL of human polyvalent Ig
Description: High-binding, sterile 96-well plates (Greiner Bio-One, Frickenhausen, Germany) were coated with human polyvalent Ig as described in Example 1, using a coating solution comprising human polyvalent Ig at a concentration ranging from 10 to 300 μg/mL, as indicated.
Where indicated, the SYK inhibitor BAY-61-3606, obtained from Selleckchem (reference: S7006), was added to the culture medium at a final concentration of 5 μM.
as §1, with “Eosinophils” for “Neutrophils”, “19656).” for “19666).”, “eosinophils” for “neutrophils”, “bovine serum albumin (negative control)” for “HSA”, “1.5×10^4” for “7.5×10^4”, “2×10^5” for “10^6”
Time-lapse images were acquired by live cell fluorescent microscopy. Quantitative time-course measure of EET formation was performed by computer-assisted image analysis (data are expressed as GCU/well).

[4] = tested on: human peripheral blood neutrophils; experiment: ROS formation with the oxidative-sensitive fluorescent probe CM-H2DCFDA, live cell imaging; details: inhibitor 0 to 5 μM; plates coated with 100 μg/mL human polyvalent Ig; 6 hours
Description: as §2
as §3, with “Human IgG4 can engage FcRI (CD64) and enhance the activation of human neutrophils triggered by immobilized immunoglobulins, which is mediated by FcRIIa and FcRIIIb, by the engagement of an additional signaling pathway.” left out
Time-lapse images were acquired by live cell fluorescent microscopy. Quantitative time-course measure of ROS and NET formation was performed by computer-assisted image analysis (data are expressed as GCU/well).

[5] = tested on: human peripheral whole blood; experiment: ET formation in diluted whole blood, live cell fluorescent microscopy (Sytox Green); details: 5 μM inhibitor; 20 μg/mL of human polyvalent Ig; whole blood 1/10 dilution
Description: High-binding, sterile 96-well plates (Greiner Bio-One, Frickenhausen, Germany) were coated with human polyvalent Ig as described in Example 1, using a coating solution comprising human polyvalent Ig at a concentration ranging from 10 to 80 μg/mL, as indicated.
Where indicated, the SYK inhibitor BAY-61-3606, obtained from Selleckchem (reference: S7006), was added to the whole blood samples diluted in culture medium at a final concentration of 5 μM.
Fresh human peripheral whole blood was collected from healthy donors and diluted ten times (1/10 dilution) in culture medium containing cell-impermeant, nucleic acid dye Sytox Green at a concentration of 1 μM to detect ET formation. Diluted whole blood was then distributed in 96-well plates (Greiner Bio-One, Frickenhausen, Germany), in particular in 96-well plates coated with human polyvalent Ig or bovine serum albumin (negative control) as described above.
Time-lapse images were acquired by live cell fluorescent microscopy. Quantitative time-course measure of ET formation was performed by computer-assisted image analysis (data are expressed as GCU/well).

[6] = 24-hour live imaging, plate-bound human polyvalent Ig (coating solution 100 μg/mL) or PMA 25 nM

CCCCCCCCCCCCCC(=O)O[C@@H]1[C@@H](C)[C@@]2(O)[C@@H](C=C(CO)C[C@]3(O)C(=O)C(C)=C[C@@H]23)[C@@H]2C(C)(C)[C@]12OC(C)=O [PMA, phorbol 12-myristate 13-acetate] was tested, and the “NET formation (nuclear morphology of neutrophils)” value [1] was “most neutrophils displayed signs of NETosis”, the “NET formation rate change” value [2, 6] was “causes NET formation from all neutrophils at once” and the “NET formation time course” value [2, 6] was “NET induction was visible on almost all neutrophils from 3-hour culture; also recorded: drives the simultaneous formation of NETs from a great number of neutrophils, within as soon as 3 hours of culture”.

COc1ccc(-c2cc3nccn3c(Nc3ncccc3C(N)=O)n2)cc1OC [BAY-61-3606] was tested, and the “EET formation induced by immobilized human polyvalent Ig” value [3] was “no EET formation”, the “ROS production induced by immobilized human polyvalent Ig” value [4] was “decreased” and the “ET formation induced by immobilized human polyvalent Ig” value [5] was “no ET formation”. The “NET formation induced by immobilized human polyvalent Ig” value ([2]; inhibitor 0 to 5 μM, plates coated with 100 μg/mL human polyvalent Ig, 6 hours) was “decreased” and the “NET formation elicited by motavizumab plus immobilized human polyvalent Ig” value ([2]; inhibitor at a concentration of 5, 100 μg/mL motavizumab and immobilized human polyvalent Ig (100 μg/mL coating)) was “completely abolishes the NET formation”.

B1: motavizumab: humanized monoclonal antibody directed against the respiratory syncytial virus (RSV), produced as a human IgG4 (antibody, chains of the INN, looked up, V domains shown)
VH: QVTLRESGPALVKPTQTLTLTCTFSGFSLSTAGMSVGWIRQPPGKALEWLADIWWDDKKHYNPSLKDRLTISKDTSKNQVVLKVTNMDPADTATYYCARDMIFNFYFDVWGQGTTVTVSS
VL: DIQMTQSPSTLSASVGDRVTITCSASSRVGYMHWYQQKPGKAPKLLIYDTSKLASGVPSRFSGSGSGTEFTLTISSLQPDDFATYYCFQGSGYPFTFGGGTKVEIK
modifications: IgG4
notes: humanized monoclonal antibody directed against the respiratory syncytial virus (RSV), produced as a human IgG4
With B1 the “NET formation in presence of immobilized human polyvalent Ig” value ([2]; antibody 0 to 100 μg/mL in culture medium, plates coated with 100 μg/mL human polyvalent Ig, compared to coated IVIG without motavizumab) was “drives a proportional increase in the formation of NETs” and the “NET formation in absence of immobilized immunoglobulins” value ([2]; antibody 0 to 100 μg/mL in culture medium, uncoated 96-well plates) was “is not able to drive the formation of NETs”.
